From patent publication US8754038B2, “Template-fixed peptidomimetics with CCR10 antagonistic activity” (priority 2009, dated 2014) come the findings set out here.

Numbered stars: 1 amine (or outer) side, 2 acyl side, 3 side chain; on linkers, the order of the positions; unused ones are H or OH. Square brackets hold non-standard residues; d marks the D form. Side chains are listed from the residue outwards. Peptide text beside a SMILES is read from it. * marks the point of attachment. Pro(trans-4-cHex) = O=C(O)[C@@H]1C[C@@H](C2CCCCC2)CN1; Pro(cis-4-Ph) = O=C(O)[C@@H]1C[C@H](c2ccccc2)CN1; Phe(4-CF3) = N[C@@H](Cc1ccc(C(F)(F)F)cc1)C(=O)O; Oic = O=C(O)[C@@H]1C[C@@H]2CCCC[C@@H]2N1; Phe(4-CN) = N#Cc1ccc(C[C@H](N)C(=O)O)cc1; Hyp = O=C(O)[C@@H]1C[C@@H](O)CN1; Benzyl(4-Br) = Brc1ccc(C*)cc1; dPip = O=C(O)[C@H]1CCCCN1; Ac5c = NC1(C(=O)O)CCCC1; Dab = NCC[C@H](N)C(=O)O; X14 = N#Cc1cccc(C*)c1; CO = O=C([*:1])[*:2]; NHPh = c1ccc(N*)cc1; Bn = c1ccc(C*)cc1; Ms = CS(=O)(=O)*

Usually IC50 stands for the point on the concentration scale where inhibition reaches its midpoint.

Assay [1] has as its target T1, human CCR10 (Homo sapiens, UniProt P46092).
T1 construct: expressed in transfected cells
T1 sequence (P46092 1-362): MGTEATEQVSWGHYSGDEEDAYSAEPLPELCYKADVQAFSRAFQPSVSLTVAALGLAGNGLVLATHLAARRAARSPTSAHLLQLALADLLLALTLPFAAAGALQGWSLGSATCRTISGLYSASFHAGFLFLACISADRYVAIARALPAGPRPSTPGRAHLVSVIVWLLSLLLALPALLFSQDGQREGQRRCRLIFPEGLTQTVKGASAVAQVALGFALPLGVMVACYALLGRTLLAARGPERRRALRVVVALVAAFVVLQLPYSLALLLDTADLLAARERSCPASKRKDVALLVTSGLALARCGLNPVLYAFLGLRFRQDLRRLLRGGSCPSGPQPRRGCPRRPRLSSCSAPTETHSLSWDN
Put plainly: Calcium flux assay (CCR10 antagonism, CCL27 as agonist). The assay is classed as cell-based. The settings on record: CCR10 transfected 300-19 murine pre-B cells; CCL27 30 nM. How it is done:
(§1) Lyophilized peptides were weighed on a Microbalance (Mettler MX5) and dissolved in aqueous 90% DMSO to a final concentration of 10 mM unless otherwise stated. Stock solutions were kept at +4° C., and protected from light.
(§2) Peptides were assayed for CCR10 antagonism in a calcium flux assay and in a chemotaxis assay using a mouse pre-B cell line 300-19 stably transfected with human CCR10, and with human CCL27 as agonist.
The calcium flux release was assessed using CCR10 transfected 300-19 murine pre-B cells. These cells were labeled as a batch with Calcium4 Reagent (Molecular Devices, Sunnyvale, Calif.) in HBSS buffer for 60 min.
After dispensing 8×10^4 cells in each well of a 384-well black plate, a concentrated solution of the β-hairpin peptidomimetics of this invention in HBSS+0.1% BSA+0.1% DMSO (final concentration) was added to the cells. The entire plate was centrifuged and placed in a Flexstation II (Molecular Devices) automated plate reader. After reading a 20 s baseline, the Flexstation dispensed CCL27 (RnD systems) at a final concentration of 30 nM in HBSS+0.1% BSA onto the cells and calcium flux was measured for an additional 70 s.
Alternatively a FIipR384 (Molecular Devices) was used for read out of the 384-well plates. In this case about 8×10^4 cells were placed in each well, centrifuged, placed in the FlipR and after 5 s of baseline reading, the β-hairpin peptidomimetics in HBSS+0.1% BSA+0.1% DMSO (final concentration) were added. After an incubation time of 5 min, the CCL27 solution was added to the mixture and the calcium flux was measured for 200 s.
The maximum signal was determined from control wells without inhibitor. Percentage of inhibition was calculated from a range of compound concentrations, which were subsequently used to calculate IC50 values (Softmax Pro, Molecular Devices). All steps were carried out at room temperature.

Assay [2] deals with T1, human CCR10. Put plainly: Chemotaxis assay (CCR10-transfected 300-19 cells, CCL27 gradient). The settings on record: CCR10-transfected 300-19 murine pre-B cells; 30 nM CCL27 gradient. The assay is classed as cell-based. Here is the method:
as §1, §2
The chemotactic response of CCR10-transfected 300-19 murine pre-B cells to a gradient of CCL27 (CTACK) was measured using disposable Transwell® assay plates from Costar (5 μm pore size) according to the protocol of the manufacturer. Briefly, cells were grown under sterile conditions at 37° C. with 5% CO2 in flasks containing RPMI+5% FCS, glutamine, penicillin/streptomycin (all media components were from Life Technologies) and the appropriate selection antibiotics (Puromycin, G418 or Tetracycline). For the assay, cells were pelleted by centrifugation, washed once in Dulbecco's phosphate buffered saline (DPBS), and resuspended to give 1×10^6 cells/ml in RPMI+0.5% bovine serum albumin (BSA). 100 μl of cell suspension was applied to the top of the assay filter. The β-hairpin peptidomimetics, diluted in the same assay medium, were added to both top and bottom chambers. The cells were allowed to migrate for 4-6 hours at 37° C. into the bottom chamber of the assay plate containing 30 nM of CCL27 (RnD systems). Migrated cells were counted using a FACS cytometer (Cytomics FC500, Beckman Coulter). Data normalization was performed using the number of any cells that had migrated in the absence of the β-hairpin peptidomimetic and the number of cells that have randomly migrated in absence of CCL27 [these values were taken as 100% (no inhibitory activity) and 0%, respectively]. From a range of compound concentrations IC50 were determined using Prism5 (GraphPad software).

For the compound `N#Cc1ccc(C[C@@H]2NC(=O)[C@@H]3C[C@@H](OCc4ccccc4)CN3C(=O)[C@H]3CCCN3C(=O)[C@H](CCN)NC(=O)[C@H](Cc3c[nH]c4ccccc34)NC(=O)C3(CCCC3)NC2=O)cc1` [compound 49, cyclo(-Phe(4CN)-Cyp-Trp-Dab-^DPro-Hyp(Bn)-)] (cyclo([Ac5c]W[Dab][dP][Hyp](Bn)[Phe(4-CN)])), the IC50 in assay [1] came to 181 ± 110 nM; in assay [2], 5.3 nM.
Take `NCC[C@H](N)C(=O)NCC[C@@H]1NC(=O)[C@H](Cc2c[nH]c3ccccc23)NC(=O)C2(CCCC2)NC(=O)[C@H](Cc2c[nH]c3ccccc23)NC(=O)[C@@H]2C[C@@H]3CCCC[C@@H]3N2C(=O)[C@H]2CCCN2C1=O` [Ex. 71, cyclo(-Trp-Cyp-Trp-Dab(Dab)-^DPro-Oic-)] (cyclo([Ac5c]W[Dab](Dab)[dP][Oic]W)): the results for the IC50 in assay [1] and in assay [2] were 567 ± 155 nM and 50.2 nM, respectively.
Take `NCC[C@@H]1NC(=O)[C@H](Cc2c[nH]c3ccccc23)NC(=O)C2(CCCC2)NC(=O)[C@H](Cc2c[nH]c3ccccc23)NC(=O)[C@@H]2C[C@@H](OC(=O)Nc3ccccc3)CN2C(=O)[C@H]2CCCN2C1=O` [compound 57, cyclo(-Trp-Cyp-Trp-Dab-^DPro-Hyp(CONHPh)-)] (cyclo([Ac5c]W[Dab][dP][Hyp]([CO-NHPh])W)): the figures for the half-maximal inhibitory concentration (IC50) in assay [1] and in assay [2] were 150 ± 110 nM and 183 nM, respectively.
Take `N#Cc1cccc(CO[C@@H]2C[C@H]3C(=O)N[C@@H](Cc4c[nH]c5ccccc45)C(=O)NC4(CCCC4)C(=O)N[C@@H](Cc4c[nH]c5ccccc45)C(=O)N[C@@H](CCN)C(=O)N4CCC[C@@H]4C(=O)N3C2)c1` [compound 77, cyclo(-Trp-Cyp-Trp-Dab-^DPro-Hyp(3CNBn)-)] (cyclo([Ac5c]W[Dab][dP][Hyp](X14)W)): the IC50 in assay [1] was determined as 127 ± 73 nM; in assay [2], 50.7 nM.
In the same order, the values of `CS(=O)(=O)NCC[C@@H]1NC(=O)[C@H](Cc2c[nH]c3ccccc23)NC(=O)C2(CCCC2)NC(=O)[C@H](Cc2c[nH]c3ccccc23)NC(=O)[C@@H]2C[C@@H]3CCCC[C@@H]3N2C(=O)[C@H]2CCCN2C1=O` [Ex. 100, cyclo(-Trp-Cyp-Trp-Dab(MeSO2)-^DPro-Oic-)] (cyclo([Ac5c]W[Dab](Ms)[dP][Oic]W)) are 0.2 ± 0.1 nM and 3.4 nM.
Take `NCC[C@@H]1NC(=O)[C@H](Cc2c[nH]c3ccccc23)NC(=O)C2(CCCC2)NC(=O)[C@H](Cc2c[nH]c3ccccc23)NC(=O)[C@@H]2C[C@@H](C3CCCCC3)CN2C(=O)[C@H]2CCCN2C1=O` [compound 41, cyclo(-Trp-Cyp-Trp-Dab-^DPro-Pro((4S)cHex)-)] (cyclo([Ac5c]W[Dab][dP][Pro(trans-4-cHex)]W)): the IC50 in assay [1] is 54.3 ± 22 nM; in assay [2], 140 nM.
On to `N#Cc1ccc(C[C@@H]2NC(=O)[C@@H]3C[C@@H](OCc4ccc(Br)cc4)CN3C(=O)[C@H]3CCCN3C(=O)[C@H](CO)NC(=O)[C@H](Cc3c[nH]c4ccccc34)NC(=O)C3(CCCC3)NC2=O)cc1` [compound 55, cyclo(-Phe(4CN)-Cyp-Trp-Ser-^DPro-Hyp(4BrBn)-)] (cyclo([Ac5c]WS[dP][Hyp](Benzyl(4-Br))[Phe(4-CN)])), for which the IC50 in assay [1] was determined as 5.3 ± 3.9 nM; in assay [2], 0.6 nM.
In the case of `NCC[C@@H]1NC(=O)[C@H](Cc2c[nH]c3ccccc23)NC(=O)C2(CCCC2)NC(=O)[C@H](Cc2c[nH]c3ccccc23)NC(=O)[C@@H]2C[C@@H](OCc3ccc(Br)cc3)CN2C(=O)[C@H]2CCCN2C1=O` [compound 56, cyclo(-Trp-Cyp-Trp-Dab-^DPro-Hyp(4BrBn)-)] (cyclo([Ac5c]W[Dab][dP][Hyp](Benzyl(4-Br))W)), the IC50 in assay [1] came to 11.6 ± 9.2 nM; in assay [2], 2.5 nM.
Take `NCC[C@@H]1NC(=O)[C@H](Cc2c[nH]c3ccccc23)NC(=O)C2(CCCC2)NC(=O)[C@H](Cc2ccc(C(F)(F)F)cc2)NC(=O)[C@@H]2C[C@H](c3ccccc3)CN2C(=O)[C@H]2CCCCN2C1=O` [Ex. 37, cyclo(-Phe(4CF3)—Cyp-Trp-Dab-^DPip-Pro((4R)Ph)-)] (cyclo([Ac5c]W[Dab][dPip][Pro(cis-4-Ph)][Phe(4-CF3)])): the values for the IC50 in assay [1] and in assay [2] were 14.8 ± 12 nM and 22 nM, respectively.
